According to patent US20230127304A1, “NEW INHIBITORS FOR THE KEAP1-NRF2 PROTEIN-PROTEIN INTERACTION” (PRESIDENT AND FELLOWS OF HARVARD COLLEGE, priority 2020, published 2023):
Entries after “also recorded” stand apart in the source; their conditions may differ. Read-outs that look alike come from different tables or passages of the source.

How the values were obtained:
[1] = Dynamic light scattering (DLS) aggregation; type: physicochemical; conditions: 20 μM compound, triplicates average
Experimental: To test the potential aggregation of hits we used DLS experiments. The experiments were performed on a ZS90 Zetasizer instrument (Malvern Panalytical, UK). Measurements were done in triplicate with 10 scans per run (100 s). […] The 20 μM working solution was made from a 1 mM stock of the compound in DMSO. The data was analysed by the built-in software. Compounds were classified as aggregated when the radius of the measured particles was above the minimum colloidal aggregate size (for small molecules) of 50 nm^39.

[2] = NMR solubility assay; type: physicochemical; conditions: 5 μM to 30 μM, PBS buffer, pH 7.4
[3] = tested on: NQO1; test: NQO1 assay; type: cell-based; conditions: Hepa1c1c7 cells, 48 h; for specific activity of NQO1: 0 uM = 1
Experimental: In this study, the inventors used a […] assay to quantitate the NQO1 levels. […] Specifically, Hepa1c1c7 cells were exposed in 8 replicates to a vehicle ([…]) or 8 serial dilutions of each compound for 48 h. Cells were then lysed and the specific activity of NQO1 was determined using menadione as a substrate.

[4] = target: T1, GST-KEAP1 (Mus musculus, UniProt Q9Z2X8); test: SPR Level-3 steady-state binding
T1 construct: mouse KEAP1 Kelch domain (residues 322-624); made in house; host or cells: E. coli BL21(DE3)
Text: Req=(Rmax*C)/(Kd+C)+b, (1)
The biphasic binding model is given by the equation
Req=(Rmax,1*C)/(Kd,1+C)+Rmax,2*C/(Kd,2+C)+b, (2)

[5] = target: T2, NRF2-KEAP1 interaction (Mus musculus, UniProt Q9Z2X8); test: Fluorescence polarization (FP) Level-2 NRF2 peptide displacement; type: binding; conditions: for FP Assay: ability to displace the NRF2-peptide
T2 construct: mouse KEAP1 Kelch domain (residues 322-624); made in house; host or cells: E. coli BL21(DE3); peptide purchased from GenScript USA Inc
Experimental: The measurements were carried out in triplicate, and the three data points for each concentration averaged. IC50 values were determined by fitting the averaged data points to a four parameter logistic curve using the non-linear least squares method provided by the SciPy library for Python^33. The standard error (see Table 5) on the IC50 was computed by taking the square root of the diagonal of the parameter covariant matrix.

[6] = target: T2, NRF2-KEAP1 interaction; test: BLI displacement assay; type: binding; conditions: ability to displace the NRF2-peptide
Experimental: Bio-layer interferometry binding and displacement assays: NRF2-KEAP1 binding BLI experiments were performed on an Octet RED384 (ForteBio, Menlo Park, Calif., USA) using streptavidin-coated Dip and Read Biosensors (ForteBio) and 384 well plates with 120 μL volume. […] To test for nonspecific binding of GST-KEAP1 protein, reference tips were incubated in buffer alone. […] After measuring association, tips were moved to wells containing buffer, and dissociation was measured for 5 minutes. The data were processed and analysed using the Octet data analysis software version 11.0 (ForteBio, Inc., Menlo Park, Calif., USA). The association-dissociation curve for each concentration was fitted using a 1:1 model given by the equations
Compound screening by BLI displacement assay: The BLI displacement assays were setup as described above. […] The compounds were used at concentrations of […], and pre-incubated with GST-KEAP1 protein. The association phase was measured in the well containing compound with GST-KEAP1 protein for 10 minutes, and followed by a dissociation phase in buffer for 5 minutes. The inhibition percentage was the average BLI signal in the last 50 seconds of the dissociation phase, normalized against the condition of GST-KEAP1 protein in the absence of compound.

[7] = target: T3, KEAP1 (Mus musculus, UniProt Q9Z2X8); test: Ligand-detected NMR (DLB, STD, CPMG); type: binding; conditions: 50 μM compound, 5 μM KEAP1 (2.5 μM for iKeap1 and iKeap2)
T3 construct: The cleaved mouse KEAP1 Kelch domain (residues 322-624) consists of 308 amino acids; GST (N, cleaved yes); made in house; host or cells: E. coli BL21(DE3)
Experimental: Data were analysed and visualized in Matlab (MathWorks, MA).

[8] = SPR Level-3, independent experiment 2, compounds marked * fitted with biphasic binding model, read-out: Kd, 2

T1 sequence (Q9Z2X8 322-624): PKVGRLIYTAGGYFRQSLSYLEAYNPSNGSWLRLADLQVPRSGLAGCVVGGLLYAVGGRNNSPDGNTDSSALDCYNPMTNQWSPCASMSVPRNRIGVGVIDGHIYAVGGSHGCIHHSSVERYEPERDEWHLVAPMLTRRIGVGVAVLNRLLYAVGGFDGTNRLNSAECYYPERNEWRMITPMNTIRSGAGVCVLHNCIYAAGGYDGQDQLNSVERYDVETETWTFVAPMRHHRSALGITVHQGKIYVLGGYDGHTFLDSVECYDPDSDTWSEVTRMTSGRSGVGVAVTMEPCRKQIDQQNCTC
T3 sequence (Q9Z2X8 322-624): as above
T2 sequence (Q9Z2X8 322-624): as above

## Cc1ccc(S(=O)(=O)Oc2nc3nc4ccccc4nc3nc2OS(=O)(=O)c2ccc(C)cc2)cc1 [iKeap1]
[1]
  Radius: 2.306 nm
[2]
  aggregation in NMR solubility assay: does not aggregate
[3]
  CD: 2 µM
[3]; 0.156 uM
  specific activity of NQO1: 1.19
[3]; 0.313 uM
  specific activity of NQO1: 1.28
[3]; 0.625 uM
  specific activity of NQO1: 1.41
[3]; 1.25 uM
  specific activity of NQO1: 1.68
[3]; 2.5 uM
  specific activity of NQO1: 2.1
[3]; 5 uM
  specific activity of NQO1: 2.66
[3]; 10 uM
  specific activity of NQO1: 3.53
[3]; 20 uM
  specific activity of NQO1: 4.18

## O=C(O)c1ccc(NC2=C/C(=N\S(=O)(=O)c3ccc4ccccc4c3)c3ccccc3C2=O)cc1 [iKeap2]
[4]; SPR Level-3, average of three independent experiments, read-out: Kd average
  Kd: 252 nM
[4]; [8]
  Kd: 263 nM
[4]; SPR Level-3, independent experiment 3, compounds marked * fitted with biphasic binding model, read-out: Kd, 3
  Kd: 334 nM
[4]; steady-state SPR, read-out: Kd (binding affinity to KEAP1)
  Kd: 158 nM
[5]; Level-2 FP, displacement of TAMRA-NRF2 peptide
  IC50: 2700 nM
[5]
  FP Assay: active
[6]
  BLI Assay: able to displace the NRF2 peptide from KEAP1; also recorded: active
[7]
  binding to KEAP1 by ligand-detected NMR: directly bind to KEAP1
[1]
  Radius: 12.492 nm
[3]
  CD: 2.7 µM
[3]; 0.156 uM
  specific activity of NQO1: 1.13
[3]; 0.313 uM
  specific activity of NQO1: 1.2
[3]; 0.625 uM
  specific activity of NQO1: 1.33
[3]; 1.25 uM
  specific activity of NQO1: 1.49
[3]; 2.5 uM
  specific activity of NQO1: 1.91
[3]; 5 uM
  specific activity of NQO1: 2.75
[3]; 10 uM
  specific activity of NQO1: 6.08

## O=C1OC(c2ccc([N+](=O)[O-])cc2)=N/C1=C\c1cccc2ccccc12 [iKeap4]
[3]
  CD: 15 µM
[3]; 0.156 uM
  specific activity of NQO1: 1.06
[3]; 0.313 uM
  specific activity of NQO1: 1.1
[3]; 0.625 uM
  specific activity of NQO1: 1.21
[3]; 1.25 uM
  specific activity of NQO1: 1.18
[3]; 2.5 uM
  specific activity of NQO1: 1.27
[3]; 5 uM
  specific activity of NQO1: 1.47
[3]; 10 uM
  specific activity of NQO1: 1.75
[3]; 20 uM
  specific activity of NQO1: 2.2

## CC1=NN(c2ccccc2)C(=O)/C1=C\c1ccc(-c2cc(C(=O)O)ccc2Cl)o1 [iKeap7]
[5]
  FP Assay: displacer of the NRF2 peptide; also recorded: active
[6]
  BLI Assay: displacer of the NRF2 peptide; also recorded: active
[7]
  binding to KEAP1 by ligand-detected NMR: bind to KEAP1
[1]
  Radius: 3.663 nm
[3]
  CD: 20 µM
[3]; 0.156 uM
  specific activity of NQO1: 1.06
[3]; 0.313 uM
  specific activity of NQO1: 1.08
[3]; 0.625 uM
  specific activity of NQO1: 1.13
[3]; 1.25 uM
  specific activity of NQO1: 1.17
[3]; 2.5 uM
  specific activity of NQO1: 1.3
[3]; 5 uM
  specific activity of NQO1: 1.44
[3]; 10 uM
  specific activity of NQO1: 1.65
[3]; 20 uM
  specific activity of NQO1: 2.08

## O=C(Nc1cccc(-c2nnn[nH]2)c1)[C@@H]1C[C@H]2CCCC[C@H]2N1C(=O)c1ccc2ccccc2c1 [iKeap8]
[5]
  FP Assay: able to displace the NRF2 peptide; also recorded: active
[6]
  BLI Assay: able to displace the NRF2 peptide; also recorded: active
[7]
  binding to KEAP1 by ligand-detected NMR: bind to KEAP1
[1]
  Radius: 3.340 nm
[3]; 0.156 uM
  specific activity of NQO1: 1.07
[3]; 0.313 uM
  specific activity of NQO1: 1.04
[3]; 0.625 uM
  specific activity of NQO1: 1.06
[3]; 1.25 uM
  specific activity of NQO1: 1.11
[3]; 2.5 uM
  specific activity of NQO1: 1.08
[3]; 5 uM
  specific activity of NQO1: 1.11
[3]; 10 uM
  specific activity of NQO1: 1.16
[3]; 20 uM
  specific activity of NQO1: 1.21

## O=S(=O)(N=C1CCCCCN1)c1ccc2sc(NS(=O)(=O)c3ccc4ccccc4c3)nc2c1 [iKeap9]
[4]; [8]
  Kd: 187 nM
[5]
  FP Assay: not able to effectively displace the NRF2 peptide
[6]
  BLI Assay: not able to effectively displace the NRF2 peptide
[7]
  binding to KEAP1 by ligand-detected NMR: bind to KEAP1
[1]
  Radius: 1.862 nm

## O=S(=O)(O)c1ccc(/N=N\c2ccc(/N=N\c3ccc(O)c4cccc(S(=O)(=O)O)c34)cc2)cc1 [iKeap18]
[3]; 0.156 uM
  specific activity of NQO1: 1.09
[3]; 0.313 uM
  specific activity of NQO1: 1.09
[3]; 0.625 uM
  specific activity of NQO1: 1.19
[3]; 1.25 uM
  specific activity of NQO1: 1.18
[3]; 2.5 uM
  specific activity of NQO1: 1.29
[3]; 5 uM
  specific activity of NQO1: 1.39
[3]; 10 uM
  specific activity of NQO1: 1.58
[3]; 20 uM
  specific activity of NQO1: 1.79
[3]; extrapolated (extp)
  CD: 40 (extp) uM

## O=C1C[C@@H](c2ccc3ncccc3c2)c2c(cc(O)c3c(=O)cc(-c4ccc(O)cc4)oc23)O1 [iKeap22]
[5]
  FP Assay: not active
[6]
  BLI Assay: displacer; also recorded: active
[7]
  binding to KEAP1 by ligand-detected NMR: bind to KEAP1
[1]
  Radius: 2.547 nm

## Cc1ccc(C)c(N2C(=O)c3ccc(-c4nc(-c5ccc6[nH]nnc6c5)no4)cc3C2=O)c1 [iKeap27]
[5]
  FP Assay: not active
[6]
  BLI Assay: active
[1]
  Radius: 2.643 nm

## O=S(=O)(Nc1nc2ccccc2nc1N1CCC[C@@H](c2nc3ccccc3[nH]2)C1)c1ccccc1 [iKeap33]
[5]
  FP Assay: not active
[6]
  BLI Assay: active
[1]
  Radius: 1.585 nm

## O=C(c1cc(-c2ccc3c(c2)OCCO3)nc2ccccc12)N1CCC(Cc2ccccc2)CC1 [iKeap41]
[5]
  FP Assay: not active
[6]
  BLI Assay: active
[1]
  Radius: 4.446 nm

## CC(=O)N/C(=C\c1ccc(Cc2nc3c([nH]2)C(=O)c2ccccc2C3=O)cc1)c1nc2c([nH]1)C(=O)c1ccccc1C2=O [iKeap48]
[5]
  FP Assay: not active
[6]
  BLI Assay: active
[1]
  Radius: 25.579 nm

## C[C@H]1CCc2c(sc3ncnc(N4CCO[C@@H](CN5C(=O)c6ccccc6C5=O)C4)c23)C1 [iKeap73]
[5]
  FP Assay: not active
[6]
  BLI Assay: active
[1]
  Radius: 2.510 nm

## C[C@@H]1Oc2ccc(C(=O)C3CCN(C(=O)[C@H]4C[C@H]4c4cccc5ccccc45)CC3)cc2NC1=O [iKeap74]
[5]
  FP Assay: not active
[6]
  BLI Assay: active
[1]
  Radius: 3.034 nm

## Cc1cccn2c(=O)c3c(nc12)N1CCCCC[C@H]1[C@]1(C3)C(=O)N(Cc2ccccc2Cl)C(=O)N=C1O [iKeap75]
[5]
  FP Assay: not active
[6]
  BLI Assay: active
[1]
  Radius: 3.612 nm
